The record followed here is patent US20220054532A1, “VETERINARY COMPOSITIONS AND METHODS OF USE THEREFOR” (priority 2019, published 2022).

Format in all cases: in vivo
Data set [1] relates to dogs suffering from seizures. Put plainly: Example 6: seizures in dogs. The note with it: seizure scale 1 (seizure-free) to 10 (daily or multiple seizures); for Initial Score: day 0; for Final Score: day 60, BID. The source says:
This example examines the ability of embodiments of the invention versus phenobarbital to treat seizures.
The patient group is twenty-four dogs suffering from seizures as diagnosed by their referring veterinarian. The patient group is broken into six groups of four animals. The first group receives phenobarbital as the sole active agent; the second group receives a composition comprising phenobarbital and Keppra®; the third group receives a composition comprising HMW HA as the sole active agent; the fourth group receives a composition comprising CBD as the sole active agent; the fifth group receives a composition comprising HMW HA and CBD as the active agents; and the sixth group receives a composition comprising HMW HA, CBD, valerian root, and scutillaria as the active agents.
Each composition is administered for a period of sixty (60) days, BID. Each dog is evaluated on days 0 (“Initial Score”), 15, 30, 45, and 60 (“Final Score”) of treatment. The results are averaged and characterized on a scale of 1 (seizure-free) to 10 (daily seizures or multiple seizures during the event).
The following canine scores are observed and the results depicted in FIG. 6: […]

Data set [2] concerns cats suffering from joint inflammation. Nature of the data set: Example 4: joint inflammation, thermal imaging (feline). The note with it: over the inflamed joint, 60 days BID. The text has this: (§1) This example examines the ability of embodiments of the invention versus Cosequin® to treat joint inflammation.
(§2) The first patient group is twenty dogs suffering from joint inflammation. The second patient group is twenty cats suffering from joint inflammation. The third patient group is twenty horses suffering from joint inflammation. Each patient group is broken into five groups of four animals. The first groups receive Cosequin® as the sole active agent; the second groups receive a composition comprising HMW HA as the sole active agent; the third groups receive a composition comprising CBD as the sole active agent; the fourth groups receive a composition comprising HMW HA and CBD as the active agents; and the fifth groups receive a composition comprising HMW HA, CBD, Boswellia, and superoxide dismutase (“SOD”) as the active agents.
(§3) Each composition is administered for a period of sixty (60) days, BID. Efficacy is determined by a decrease in body temperature over the inflamed joint, as measured by thermal imaging (e.g., via Digatherm device). Thermal imaging is performed on days 0 (“Initial Score”), 15, 30, 45, and 60 (“Final Score”) of treatment.
The following feline scores are observed and the results depicted in FIG. 4b: […]

Data set [3] deals with horses suffering from joint inflammation. Put plainly: Example 4: joint inflammation, thermal imaging (equine). The following applies: over the inflamed joint, 60 days BID.
Text: as §1, §2, §3
The following equine scores are observed and the results depicted in FIG. 4c: […]

The subject of data set [4] is dogs suffering from osteoarthritis. Nature of the data set: Example 9: pain relief and side effects in canine osteoarthritis (CBD Complex). The note with it: dogs with osteoarthritis, 4 weeks of administration, group average. The source says:
This example examines the ability of various compositions to minimize pain and examines the level of adverse side effects of each composition.
At the outset of the study, participants receive a full physical examination, including weight measurement, thigh circumference, and CBC/blood chemistries. Because osteoarthritis is not only a disease of pain, but one characterized by behavioral, appetite, anxiety/aggression, family socialization, and sleep aberrations, the pet's owners are familiarized with the pain scale (canine orthopedic index) and additional behavioral assessment log.
The patient group is twenty-four dogs suffering from osteoarthritis, broken into eight groups of three dogs. The first group receives a control composition with no active agent; the second group receives a composition comprising HA as the sole active agent; the third group receives a composition comprising HMW HA as the sole active agent; the fourth group receives a composition comprising CBD as the sole active agent; the fifth group receives a composition comprising HA and CBD as the active agents; the sixth group receives a composition comprising HMW HA and CBD Complex as the active agents; the seventh group receives a composition comprising Rimadyl as the active agent; and the eighth group receives a composition comprising Meloxicam as the active agent.
Each composition is administered for a period of four (4) weeks. The owner completes the electronic log questionnaire each week. At the end of the 4-week study, participants have another full physical examination, including weight measurement, thigh circumference, and CBC/blood chemistries, with an exit interview of the owners to gain final impressions.
Each group is evaluated for pain scores and the scores averaged. The following scores are observed and the results depicted in FIG. 9: […]

Data set [5] concerns cats suffering from GI-specific inflammation. Put plainly: Example 11: GI-specific inflammation, owner-rated symptom reduction. The note with it: species not given, symptom reduction score 0 to 4; for Final Score: after 28 days BID. The source says: This example examines the ability of embodiments of the invention versus Pepcid® to treat unwanted GI-specific inflammation characterized by gastritis, reflux, vomiting, diarrhea, and inappetence.
The first patient group is twenty dogs suffering from GI-specific inflammation. The second patient group is twenty cats suffering from GI-specific inflammation. Each patient group is broken into five groups of four animals. The first groups receive Pepcid® as the sole active agent; the second groups receive a composition comprising HMW HA as the sole active agent; the third groups receive a composition comprising CBD as the sole active agent; the fourth groups receive a composition comprising HMW HA and CBD Complex as the active agents; and the fifth groups receive a composition comprising HMW HA, CBD Complex, and glutathione as the active agents.
Each composition is administered for a period of twenty-eight (28) days, BID. The owner observes potential reduction of symptoms at the end of treatment and rates the reduction as no reduction (score of 0), mild reduction (score of 1), moderate reduction (score of 2), significant reduction (score of 3), or resolution of symptoms (score of 4).

In data set [6] the test system is dogs suffering from heart failure. Put plainly: Example 15: heart failure in dogs (CBD Complex). The note with it: heart failure scale 1 (few to no clinical signs) to 10 (severe); for Initial Score: day 0; for Final Score: day 90, BID. The source says: This example examines the ability of embodiments of the invention versus enalapril to treat heart failure.
The patient group is twenty-four dogs suffering from heart failure.
The patient group is broken into six groups of four dogs. The first group receives enalapril as the sole active agent; the second group receives a composition comprising enalapril and Lasix®; the third group receives a composition comprising HMW HA as the sole active agent; the fourth group receives a composition comprising CBD as the sole active agent; the fifth group receives a composition comprising HMW HA and CBD Complex as the active agents; and the sixth group receives a composition comprising HMW HA, CBD Complex, liposomal CoQ10, hawthorn berry, and ginko biloba as the active agents.
Each composition is administered for a period of ninety (90) days, BID. Each animal is evaluated on days 0 (“Initial Score”), 30, 60, and 90 (“Final Score”) of treatment. The results are averaged and characterized on a scale of 1 (few to no clinical signs of heart failure) to 10 (severe heart failure).

As to `C=C(C)[C@@H]1CCC(C)=C[C@H]1c1c(O)cc(CCCCC)cc1O` [CBD Alone, 2-[(1R,6R)-3-methyl-6-prop-1-en-2-ylcyclohex-2-en-1-yl]-5-pentylbenzene-1,3-diol], the “Initial Score” value was determined as 9 in data set [1], 0 in data set [5] and 8 in data set [6]. The entries for the “Final Score” value in data set [1], in data set [5] and in data set [6] were 4, 2 and 4, respectively. In addition, the “Reduction in Temperature (° F.)” value in data set [2] came out at 2.0 ° F; in data set [3], 1.6 ° F. The “Average Pain Score” value in data set [4] is on record as 19; in data set [4] (listed as CBD alone) it was “not especially effective in reducing pain”. Moreover, the entries for the “Average Side Effect Score” value in data set [4] and in data set [4] (listed as CBD alone) were 0.5 and “even lower degree of adverse side effects”, respectively.

Turning to hyaluronic acid [HMW HA Alone], the results for the “Initial Score” value in data set [1], in data set [5] and in data set [6] were 9, 0 and 8, respectively. Moreover, the figures for the “Final Score” value in data set [1], in data set [5] and in data set [6] were 5, 3 and 4, respectively. Moreover, the “Reduction in Temperature (° F.)” value is given as 2.3 ° F in data set [2] and 2.1 ° F in data set [3]. Besides, the “Average Pain Score” value in data set [4] is given as 16; in data set [4] (listed as HMW HA alone), “only slightly reduce pain”. Also, the figures for the “Average Side Effect Score” value in data set [4] and in data set [4] (listed as HMW HA alone) were 4 and “low degree of adverse side effects”, respectively.
